Results published in publication PMC6896172, “Successful Targeting of the Warburg Effect in Prostate Cancer by Glucose-Conjugated 1,4-Naphthoquinones” (Cancers, 2019).

Legend:
LNCaP cells = experiment: MTT cytotoxicity assay in LNCaP cells; type: cell-based; conditions: Homo sapiens, 48 h of treatment, cancer
Experimental: (§1) Dr. Dr. med. Sonja Loges (University Medical Center Hamburg-Eppendorf, Hamburg, Germany). Cells were cultured according to the manufacturers’ instructions and were recently authenticated by a commercial service (Multiplexion, Heidelberg, Germany). Culture conditions are described in the Supplementary Information.
(§2) MTT (3-(4,5-dimethylthiazol-2-yl)-2,5-diphenyltetrazolium bromide) cytotoxicity assay was used for the evaluation of cytotoxicity of the compounds or their combinations. Experiments were performed as previously described. In brief, 6000 cells/well were seeded in 96-well plate, incubated overnight, and treated with the drugs in 100 µL/well of 10% FBS/RPMI media containing 2 g/L of D-(+)-glucose for 48 h, unless otherwise stated. For 2 h treatment the cells were treated with the drugs for 2 h in the culture media, then the media was exchanged to fresh drug-free media (100 µL/well) containing MTT reagent and the further steps were performed as previously described.

DU145 cells = experiment: MTT cytotoxicity assay in DU145 cells; type: cell-based; conditions: Homo sapiens, DU-145, 48 h of treatment, cancer
Experimental: as §1, §2

22Rv1 cells = experiment: Mitochondrial membrane potential assay (JC-1, flow cytometry); type: cell-based, human; conditions: 2 h of treatment
Experimental: The loss of mitochondrial membrane potential (Δψ) was measured by flow cytometry technique using staining with Δψ-sensitive dye JC-1 (5,5′,6,6′-tetrachloro-1,1′,3,3′-tetraethylimidacarbocyanine iodide). Cells were seeded in 12-well plates (100 × 10^3 cells/well in 1 mL/well) and incubated overnight. Then, the media was changed to PBS (1 mL/well) containing the investigational drugs. After 2 h of incubation (37 °C, 5% CO2, in the dark) the cells were trypsinized, pelleted, resuspended in 100 µL of 2 µM JC-1/PBS, incubated for 1 h (37 °C, 5% CO2, in the dark) and Δψ loss was measured by flow cytometry technique.

MRC-9 cells = experiment: MTT cytotoxicity assay in MRC-9 cells; type: cell-based; conditions: Homo sapiens, MRC9, 48 h of treatment, non-cancer
Experimental: as §1, §2

HUVEC cells = experiment: MTT cytotoxicity assay in HUVEC cells; type: cell-based; conditions: Homo sapiens, 48 h of treatment, non-cancer
Experimental: as §1, §2

CC1(C)OC2OC(C(O)COC3=CC(=O)c4cccc(O)c4C3=O)C(O)C2O1 (centres unmarked) [Compound 11]
IC50 (LNCaP cells): 570 nM
IC50 (DU145 cells): 470 nM
effect on ΔΨm (22Rv1 cells): quick ΔΨm loss
IC50 (MRC-9 cells): 3.74 µM
IC50 (HUVEC cells): 4.31 µM
